Common to all, as to experiment: Tumor cell proliferation inhibition (Promega cell viability, 72 h)
Common to all, as to assay type: cell-based

One assay relates to Duadi. The note with it: Duadi cells, read-out: Anti-proliferation IC50. How it is done: (§1) The cell lines used in the experiment are various tumor cells, including DU4475, Colo205, HepG2, PLC/PRF/5, BT-20, LS174T, NCI-H929, HCT116, SW620, SK-CO-1, SW480, DLD1, HT-29, SW900, SW1417, HuH7, H2009, PANC-1, SW48, Duadi, H358, HCT15, 22Rv1, Hela, RKO, Raji, Jurkat, NCI-H716, MDA-MB-231, NCI-H157 and THP1, and the inhibitory effect of the compound of the present disclosure on the proliferation of these tumor cells is determined, in order to screen out sensitive cell types of the compound of the present disclosure.
(§2) DU4475, Colo205, HepG2, PLC/PRF/5, BT-20, LS174T, NCI-H929, HCT116, SW620, SK-CO-1, SW480, DLD1, HT-29, SW900, SW1417, HuH7, H2009, PANC-1, SW48, Duadi, H358, HCT15, 22Rv1, Hela, RKO, Raji, Jurkat, NCI-H716, MDA-MB-231, NCI-H157 and THP1 cell lines cultured in each medium were treated during the logarithmic growth phase, and the cells were collected and prepared into a uniform cell suspension of known concentration, and then added to the 96-well cell culture plate to make each well contain 1000 cells. Put it into a 5% CO2 incubator and incubate at 37° C. for 20-24 h. The next day, the fully dissolved 3-fold gradient diluted compound was added to each cell culture well, so that the final maximum concentration in the cell culture well was 20 μM, and the culture was continued for 72 hours. In this test, Promega's cell viability detection test is used for detection. The more the cells proliferate, the stronger the final signal intensity will be. The detection instrument is SpectraMax, full wavelength mode. The wells with only DMSO added were used as positive control wells, and the wells without cells inoculated were used as negative control wells. The IC50 value of each compound for different cell proliferation inhibition was calculated to evaluate the inhibitory effect of the compound on different tumor cells.

For a further assay, the system named is H358. The note with it: Homo sapiens, NCI-H358, H358 cells, read-out: Anti-proliferation IC50. How it is done:
as §1, §2

A further assay concerns HCT116. The note with it: Homo sapiens, HCT-116, HCT116 cells, read-out: Anti-proliferation IC50. How it is done:
as §1, §2

For another assay, the system named is 22Rv1. To be noted: Homo sapiens, 22Rv1 cells, read-out: Anti-proliferation IC50. The protocol: as §1, §2
For another assay, the system named is SW900. To be noted: Homo sapiens, SW900 cells, read-out: Anti-proliferation IC50. The protocol:
as §1, §2

A further assay has as its system THP1. To be noted: Homo sapiens, THP-1, THP1 cells, read-out: Anti-proliferation IC50. How it is done:
as §1, §2

The next assay relates to DU4475. To be noted: Homo sapiens, DU-4475, DU4475 cells, read-out: Anti-proliferation IC50. How it is done: as §1, §2
A further assay relates to PANC-1. To be noted: Homo sapiens, PANC-1 cells, read-out: Anti-proliferation IC50. How it is done: as §1, §2
The test system of the next assay is MDA-MB-231. To be noted: Homo sapiens, MDA-MB-231 cells, read-out: Anti-proliferation IC50. The protocol: as §1, §2
Another assay relates to HT-29. The note with it: Homo sapiens, HT-29 cells, read-out: Anti-proliferation IC50. The protocol: as §1, §2
For a further assay, the system named is RKO. To be noted: Homo sapiens, RKO cells, read-out: Anti-proliferation IC50. The protocol: as §1, §2
A further assay relates to NCI-H929. To be noted: Homo sapiens, NCI-H929 cells, read-out: Anti-proliferation IC50. The protocol:
as §1, §2

The test system of another assay is Raji. To be noted: Homo sapiens, Raji cells, read-out: Anti-proliferation IC50. How it is done:
as §1, §2

The next assay relates to NCI-H716. To be noted: Homo sapiens, NCI-H716 cells, read-out: Anti-proliferation IC50. The protocol: as §1, §2
A further assay has as its system LS174T. The note with it: Homo sapiens, LS174T cells, read-out: Anti-proliferation IC50. How it is done:
as §1, §2

The test system of another assay is DLD1. The note with it: Homo sapiens, DLD-1, DLD1 cells, read-out: Anti-proliferation IC50. The protocol:
as §1, §2

A further assay concerns SW1417. The note with it: Homo sapiens, SW1417 cells, read-out: Anti-proliferation IC50. The protocol: as §1, §2
A further assay relates to Hela. To be noted: Homo sapiens, Hela cells, read-out: Anti-proliferation IC50. The protocol:
as §1, §2

The next assay deals with HuH7. The note with it: Homo sapiens, Huh-7, HuH7 cells, read-out: Anti-proliferation IC50. The protocol: as §1, §2
Another assay deals with H2009. The note with it: Homo sapiens, NCI-H2009, H2009 cells, read-out: Anti-proliferation IC50. The protocol: as §1, §2

Structures are written as SMILES.

Take `[2H]C([2H])([2H])N1c2nc(NCc3ccc(Oc4cnc(C(F)(F)F)nc4)nc3)nc3c2N(CCC3)C(=O)[C@]1(C)CO` [AN10250399]: the IC50 in the assay with Duadi was more than 10000 nM; in the assay with H358, more than 10000 nM; with HCT116, 240 nM; with 22Rv1 it was more than 10000 nM; in the assay with SW900 it was 57.2 nM; in the assay on THP1 it was more than 10000 nM. Besides, the IC50 is 36.9 nM in the assay on DU4475; 140 nM in the assay on PANC-1; more than 10000 nM in the assay with MDA-MB-231; 131 nM in the assay on HT-29; more than 10000 nM with RKO; 396 nM in the assay on NCI-H929. Further, the IC50 was more than 10000 nM in the assay on Raji; more than 10000 nM in the assay with NCI-H716; 102 nM in the assay on LS174T; 96.6 nM with DLD1; 170 nM with SW1417; more than 10000 nM with Hela. For the same compound, the IC50 amounted to 106 nM in the assay on HuH7 and 214 nM in the assay with H2009.

Turning to `Cc1nc(C(F)(F)F)ncc1Oc1ccc(CNc2nc(C)c3c(n2)N(C)[C@@H](C)C(=O)N3)cn1` [AN10250484], the IC50 in the assay on Duadi is more than 10000 nM; in the assay with H358, more than 10000 nM; in the assay with HCT116, 142 nM; in the assay with 22Rv1, more than 10000 nM; with SW900, 26.6 nM; in the assay with THP1, more than 10000 nM. Besides, the IC50 is 7.9 nM in the assay on DU4475; 47.5 nM in the assay with PANC-1; more than 10000 nM in the assay on MDA-MB-231; 352 nM in the assay on HT-29; more than 10000 nM with RKO; 129 nM in the assay with NCI-H929. Further, the IC50 is more than 10000 nM with Raji; more than 10000 nM in the assay with NCI-H716; 26.3 nM in the assay on LS174T; 315 nM with DLD1; 33.4 nM in the assay with SW1417; more than 10000 nM with Hela. The IC50 is 61.3 nM in the assay with HuH7 and 91.7 nM in the assay on H2009.

For the origin of these results see patent publication US20240085425A1, “BIOMARKER AND APPLICATION THEREOF” (ADLAI NORTYE BIOPHARMA CO., LTD., priority 2022, published 2024).
